Values quoted from earlier work, collected in patent publication US20050232866A1, “Biochemically-activated contrast agents for magnetic resonance imaging” (Alerion Biomedical Inc., priority 2004, published 2005).

How the values were obtained:
[1] = Gd(III) chelate
[2] = physiological pH

Row | stability constant (formation constant) logK [1] | dissociation kinetics [2] | Structure (SMILES)
1 | 22.4 | – | O=C([O-])CN(CCN(CC(=O)[O-])CC(=O)O)CCN(CC(=O)[O-])CC(=O)O.[Gd+3] [Gd(DTPA)]
2 | 28.5 | very slow dissociation kinetics | O=C([O-])CN1CCN(CC(=O)[O-])CCN(CC(=O)O)CCN(CC(=O)[O-])CC1.[Gd+3] [Gd-DOTA]
